Assay results reported in PubChem BioAssay AID179 (DTP/NCI, 2004).
Where “and” joins values, the source holds several entries; their conditions need not be identical. Identical values can stand only once. Calls of active or inactive are those of the source.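 How the source made its calls: active means compounds giving half or more protection of infected cells from virus-caused growth loss, again on retest; inactive means the rest.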

System: CEM cells HIV-1 protection, formazan growth assay
Assay: NCI AIDS Antiviral Assay
Details: for IC50: measured here: growth of uninfected CEM cells
Summary of the method: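 Five concentrations of each compound were applied to infected and uninfected human CEM cells. Protection from HIV-1 was judged from growth measured with a soluble formazan assay.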

Row | Structure (SMILES) | EC50 | IC50 | outcome
1 | CCOC(=O)/C(=C/c1ccc[nH]1)P(=O)(OCC)OCC | > 437 µM | > 437 µM | 
2 | On1c(-c2ccccc2)c(-c2ccccc2N2CCCC2)c2ccccc21 |  |  | inactive
3 | Nc1nc(Cl)cc(Nc2cc(Cl)cc(Cl)c2)n1 | > 200 µM | 23.4 µM | 
4 | NC(=O)CC[C@H]1C(=O)N=C(N)N1C(=O)OCc1ccccc1 | > 200 µM | > 200 µM | 
5 | COc1ccc2[nH]c3c4c(c5cc(C(C)(C)C)ccc5c3c2c1)C(=O)N(c1ccccc1)C4=O |  |  | inactive
6 | CC(=O)OC12CCCCC(CCCC1)O2 | > 200 µM | > 200 µM | 
7 | O=c1c2ccccc2oc2nc3ccc(Cl)cc3n12 | > 37.2 µM | > 37.2 µM | 
8 | O=c1c(-c2c(-c3ccccc3)oc3ccc(Cl)cc3c2=O)c(-c2ccccc2)oc2ccc(Cl)cc12 | > 200 µM | > 200 µM | 
9 | O=C1/C(=C/c2ccc([N+](=O)[O-])cc2)C(=O)N(c2ccccc2)C1c1ccccc1 (stereo unspecified) | > 74.1 µM | 41.7 µM | 
10 | Cc1cc(Cl)ccc1NC(=O)CCCC(=O)C(C(=O)c1ccccc1)c1ccccc1 (stereo unspecified) |  |  | inactive
11 | CSSc1ccccc1 | > 20 µM | 7.76 µM | 
12 | CC(=Nc1cccc(Cl)c1)c1ccncc1 |  |  | inactive
13 | O=C(CCc1cccc(O)c1)NCCc1ccc(O)cc1 | 123 µM | > 200 µM | 
14 | C/C=C1\CN2CCc3c([nH]c4ccccc34)C2CC1C(=O)OC (stereo unspecified) | > 219 µM | > 219 µM | 
15 | O=C(NNC(=O)c1ccncc1)C(=O)Nc1cc(Cl)c(Cl)cc1Cl | > 18.6 µM | > 18.6 µM | 
16 | COc1ccc(S(=O)(=O)OC)cc1C(=O)c1cc(S(=O)(=O)OC)ccc1OC | > 23.4 µM | > 23.4 µM | 
17 | C=CCC12CC(O)C(O)CC1(OC)OC(c1cc(OC)c(OC)c(OC)c1)C2C (stereo unspecified) | > 200 µM | 129 µM | 
18 | O=C(Nc1ccccc1SC(/C=C/NNC1=NC(c2ccccc2)C(c2ccccc2)=NN1)c1ccccc1)c1ccc(Cl)cc1Cl (stereo unspecified) | > 10.7 µM | > 10.7 µM | 
19 | [O-]c1c2cc(-[n+]3c(-c4ccccc4)cc(-c4ccccc4)cc3-c3ccccc3)cc1COCCOCCOCCOCCOC2 | > 200 µM | 36.3 µM | 
20 | CCOP(=S)(NN=C1CCC(C(C)(C)C)CC1)OCC (stereo unspecified) | > 200 µM | 89.1 µM | 
21 | C[C@H]1CCC/C=C/[C@@H]2C[C@H](OC(=O)CN(C)C)C[C@H]2[C@H](O)/C=C/C(=O)O1 | > 2 µM | 0.339 µM | 
22 | CSc1nc2c(c(=O)[nH]1)N=C(c1ccccc1)CC(c1ccccc1)N2 (stereo unspecified) |  |  | inactive

Row | Structure (SMILES) | EC50 | IC50 | outcome
23 | CC1(C)/C(=N\Nc2ccc([N+](=O)[O-])cc2[N+](=O)[O-])C2CCC1C2 (stereo unspecified) | > 200 µM | > 200 µM | 
24 | CC(C)[C@@H]1ON1C(C)c1ccccc1 (stereo partly specified) | > 200 µM | > 200 µM | 
25 | CC1CCCN2C(=O)CN(CCc3ccccc3)CC(=O)N12 (stereo unspecified) |  |  | inactive
26 | CCCCC/C(=N\c1nc[nH]c1C(N)=O)OCC | > 200 µM | > 200 µM | 
27 | COCP1(=S)OC(C)CCN1C(C)C (stereo unspecified) | > 200 µM | 112 µM | 
28 | N#CC1([N+](=O)[O-])C=C1c1ccccc1 (stereo unspecified) | > 200 µM | 89.1 µM | 
29 | C#CC1(O)CCC2[C@@H]3CCc4cc(Oc5nc(F)nc(-c6c7ccccc7c(SCC)n6CCC)n5)ccc4C3CC[C@@]21C (stereo partly specified) | > 6.17 µM | > 6.17 µM | 
30 | CCOC(=O)c1sc2nc(SC)nc(N3CCCCC3)c2c1N | > 100 µM | > 100 µM | 
31 | N[C@@H](CSSC[C@H](N)C(=O)OCc1ccccc1)C(=O)OCc1ccccc1 | > 200 µM | 83.2 µM | 
32 | N/N=C(\N)SCc1ccc(N=C=S)cc1 |  |  | inactive
33 | Cc1ncc([N+](=O)[O-])n1CCNC(=O)CCn1ccnc1[N+](=O)[O-] | > 200 µM | > 200 µM | 
34 | CCOc1ccccc1NC(=O)/C=C1\NC(=O)CS1 | > 158 µM | 129 µM | 
35 | O=C1OC(=O)c2cc3c(cc21)C(=O)O/C3=C\c1ccccc1 |  |  | inactive
36 | COc1cc2c3c(c1OC)C(=O)C=C3N(S(=O)(=O)c1ccc(C)cc1)CC2 |  |  | inactive
37 | CC1C[C@@]23C4CCCN2CC2OC2[C@@]13C1CC4OC1=O (stereo partly specified) | > 182 µM | > 182 µM | 
38 | COC(=O)c1ccccc1/C=C1\Cc2c(C)c3c(c(C)c2C1=O)CCC3 |  |  | inactive
39 | CC(CNc1ccc(Cl)cc1)(CNc1ccc(Cl)cc1)[N+](=O)[O-] | > 14.8 µM | > 14.8 µM | 
40 | CC1=NOC(=O)C1N=Nc1ccc(Br)c(C)c1 (stereo unspecified) |  |  | inactive
41 | CC(CC=O)Nc1nn2c(=O)c3ccccc3nc2s1 (stereo unspecified) | > 200 µM | 132 µM | 
42 | C[N+](C)(C)c1ccc(/C=C2\C=Cc3ccccc32)cc1 |  |  | inactive
43 | CCOC(=O)CSc1[nH]c2nc(C)nc(Cl)c2c1C#N | > 200 µM | > 100 µM | 
44 | COC1OC(=O)c2ccccc21 (stereo unspecified) |  |  | inactive

Row | Structure (SMILES) | EC50 | IC50 | outcome
45 | OCC1OC(n2nc(-c3ccccc3)nc2-c2cnccn2)C(O)C1O (stereo unspecified) | > 200 µM | > 200 µM | 
46 | N#C[C@H](c1nc2ccccc2s1)c1nc2ccccc2nc1Cl | > 100 µM | > 100 µM | 
47 | C#CN1C(=O)c2c(c(-c3ccccc3)c(-c3ccc(Oc4ccc(-c5c(-c6ccccc6)c6c(c(-c7ccccc7)c5-c5ccccc5)C(=O)N(C#C)C6=O)cc4)cc3)c(-c3ccccc3)c2-c2ccccc2)C1=O | > 10.2 µM | > 10.2 µM | 
48 | CC(=O)OCC1OC(n2c(C)c(N=Nc3ccc(Cl)cc3)c(C)c(C#N)c2=S)C(OC(C)=O)C(OC(C)=O)C1OC(C)=O (stereo unspecified) | > 200 µM | > 200 µM | 
49 | CS(=O)(=O)C(C#N)c1nc2ccccc2nc1Cl (stereo unspecified) | > 200 µM | > 200 µM | 
50 | CC(=O)N(CCN1C(=O)c2ccccc2C1=O)CCN1C(=O)c2ccccc2C1=O |  |  | inactive
51 | Cc1cccc2c1CC1(Cc3ccccc3C1=O)C2=O (stereo unspecified) | > 200 µM | > 200 µM | 
52 | O=[N+]([O-])c1cc2c(c3nonc13)OCCCCO2 | > 200 µM | 1.15 µM | 
53 | CCCCCCCCCCCCCCCCOC1OC(CO)C(O)C(O)C1O (stereo unspecified) | > 9.33 µM | > 9.33 µM | 
54 | CCC12CC(c3ccccc3)C(C(=O)N1)C(=O)N2 (stereo unspecified) | > 200 µM | > 200 µM | 
55 | CN(C)CCCCN1CCc2c(n(C)c3ccccc23)C1=O | > 603 µM | 43.7 µM and 72.4 µM | 
56 | CC(=O)N1N=C(c2ccc3ccccc3c2O)CC1C(=O)c1ccco1 (stereo unspecified) | > 200 µM | 23.4 µM | 
57 | Nc1ccc(C2=N/C(=C\c3cccc(N)c3)C(=O)O2)cc1 |  |  | inactive
58 | COP(=O)(OC)C(NC=O)P(=O)(OC)OC | > 200 µM | > 200 µM | 
59 | NC(=O)c1nnn(Cc2ccccc2)c1N | > 200 µM | > 200 µM | 
60 | COc1ccc2c(c1OCC(=O)O)C(=O)C(CCC(=O)O)CC2 (stereo unspecified) |  |  | inactive
61 | CC(=O)Oc1c(-c2ccccc2)[nH]c2cc([N+](=O)[O-])c(/C(Cl)=C/c3ccccc3)cc12 | > 6.31 µM | > 6.31 µM | 
62 | c1ccc(P(c2ccccc2)c2ccc(P(c3ccccc3)c3ccccc3)nn2)cc1 | > 8.51 µM | > 8.51 µM | 
63 | Cc1ccc(NC(=O)c2cc(S(=O)(=O)n3cc[nH]c3=O)c(S)cc2Cl)cc1 | > 200 µM | > 200 µM | 
64 | CSc1ccc(C(=C=C=C(c2ccc(SC)s2)c2ccc(SC)s2)c2ccc(SC)s2)s1 | > 200 µM | > 200 µM | 
65 | Cn1c(=O)c2nc(-c3ccccc3)nnc2n(CCO)c1=O | > 200 µM | 41.7 µM | 
66 | CCc1cccc(C(C)C)c1NC(=O)C(=O)C1C(=O)Nc2ccccc2S1=O (stereo unspecified) | > 91.2 µM | > 91.2 µM | 
